Among the test systems are MOLT-4 leukemia; U251 CNS; SR leukemia; ACHN renal; HT29 colon; NCI-H23 lung; HOP-62 NSCLC; M14 melanoma; LOX IMVI melanoma; OVCAR-3 ovarian; COLO 205 colon; UACC-62 melanoma; HOP-92 NSCLC; MDA-MB-435; MDA-N; MALME-3M melanoma; SNB-75 CNS; K-562 leukemia; UACC-257 melanoma.
What all share (experiment): growth of human tumour cells (NCI), 48 h

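Grown in 96-well plates, cells were treated for 48 hours with each compound at five concentrations. Insufficient inhibition: endpoint recorded as highest concentration tested. TGI: concentration producing complete growth inhibition.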 *1 amine or outer side, *2 acyl side, *3 side chain or, on linkers, in order; H or OH if unused. Where a SMILES comes first, the peptide text is derived from it. Bridges are numbered along the chain shown (N, C = ends). Roman numbers before positions name the chains, in order. [ ]: non-standard residue; d: D form. Actinocin(9to1) = Cc1c2oc3c(C)ccc(C(=O)[*:1])c3nc-2c(C(=O)[*:2])c(N)c1=O; X48 = O=C1CC(C(=O)[*:2])N([*:1])C1; NMeV = CN[CH](C(=O)O)C(C)C; Sar = CNCC(=O)O

In the case of `Cc1cccc(N=Nc2c(C)nn(C(=O)CC(=O)Nc3ccccc3)c2C)c1`, the TGI in the experiment with MOLT-4 leukemia, in the experiment with U251 CNS, in the experiment on SR leukemia, with ACHN renal, in the experiment on HT29 colon and in the experiment on NCI-H23 lung was greater than 100 µM throughout. In addition, the TGI with HOP-62 NSCLC, with M14 melanoma, with LOX IMVI melanoma, in the experiment on OVCAR-3 ovarian, with COLO 205 colon and in the experiment with UACC-62 melanoma was greater than 100 µM each time. Further, the TGI in the experiment with HOP-92 NSCLC, in the experiment with MDA-MB-435, in the experiment with MDA-N, in the experiment on MALME-3M melanoma and with SNB-75 CNS was greater than 100 µM throughout.

For `C[C@]12CCC(=O)C=C1CC[C@@H]1[C@@H]2CC[C@]2(C)C(=O)[C@H](n3ccnc3)C[C@@H]12`, the TGI with MOLT-4 leukemia, in the experiment with U251 CNS, in the experiment on SR leukemia, in the experiment with ACHN renal, with HT29 colon and in the experiment on NCI-H23 lung was greater than 100 µM each time. For the same compound, the TGI with M14 melanoma, in the experiment on LOX IMVI melanoma, with K-562 leukemia, with COLO 205 colon, in the experiment on UACC-62 melanoma and with HOP-92 NSCLC was greater than 100 µM throughout. The TGI in the experiment on MDA-MB-435, with MDA-N, in the experiment on MALME-3M melanoma, in the experiment on UACC-257 melanoma and with SNB-75 CNS was greater than 100 µM throughout.

For `CSC(=NCCCCN=C(NS(=O)(=O)c1ccc(Cl)cc1)SC)NS(=O)(=O)c1ccc(Cl)cc1`, the TGI with U251 CNS, in the experiment on SR leukemia, in the experiment on ACHN renal, with HT29 colon, with HOP-62 NSCLC and in the experiment with M14 melanoma was greater than 100 µM each time. Further, the TGI in the experiment on LOX IMVI melanoma, in the experiment with OVCAR-3 ovarian, in the experiment on K-562 leukemia, in the experiment on COLO 205 colon, with UACC-62 melanoma and in the experiment with HOP-92 NSCLC was greater than 100 µM each time. The TGI with MDA-MB-435, with MDA-N, in the experiment on MALME-3M melanoma and in the experiment with UACC-257 melanoma was greater than 100 µM throughout.

`COc1cccc2c(NNc3ccccc3)c3ccc([N+](=O)[O-])cc3nc12`: the TGI was 5.84 µM in the experiment with MOLT-4 leukemia; greater than 100 µM in the experiment with U251 CNS; 50.5 µM in the experiment with SR leukemia; greater than 100 µM in the experiment with ACHN renal; greater than 100 µM in the experiment on HT29 colon; greater than 100 µM in the experiment with NCI-H23 lung. For the same compound, the TGI in the experiment on HOP-62 NSCLC, with M14 melanoma, in the experiment on LOX IMVI melanoma, with OVCAR-3 ovarian, in the experiment with K-562 leukemia and in the experiment with COLO 205 colon was greater than 100 µM each time. Moreover, the TGI with UACC-62 melanoma, in the experiment on HOP-92 NSCLC, in the experiment on MDA-MB-435, with MDA-N, with MALME-3M melanoma and with UACC-257 melanoma was greater than 100 µM each time.

Consider `Cc1c2oc3c(C)ccc(C(=O)NC4C(=O)NC(C(C)C)C(=O)N5CC(=O)CC5C(=O)N(C)CC(=O)N(C)C(C(C)C)C(=O)OC4C)c3nc-2c(C(=O)NC2C(=O)NC(C(C)C)C(=O)N3CC(=O)CC3C(=O)N(C)CC(=O)N(C)C(C(C)C)C(=O)OC2C)c(N)c1=O` (stereo not drawn) (I: TV[X48][Sar][NMeV] / II: TV[X48][Sar][NMeV]; ester I:1-I:C, II:1-II:C; linker I:N-II:N via Actinocin(9to1); configuration not given here), for which the TGI in the experiment on MOLT-4 leukemia, in the experiment on U251 CNS, in the experiment on SR leukemia, in the experiment on ACHN renal, in the experiment on HT29 colon and in the experiment with NCI-H23 lung was greater than 1 µM throughout. For the same compound, the TGI in the experiment on HOP-62 NSCLC, with M14 melanoma, with LOX IMVI melanoma, in the experiment with OVCAR-3 ovarian, with K-562 leukemia and with COLO 205 colon was greater than 1 µM throughout. The TGI in the experiment on HOP-92 NSCLC, with MDA-MB-435, in the experiment with MDA-N, in the experiment on MALME-3M melanoma and in the experiment on UACC-257 melanoma was greater than 1 µM in each case.

On to `Cc1cn(C2CC(O)C(Cn3cc(Cn4ncc(=O)[nH]c4=O)nn3)O2)c(=O)[nH]c1=O` (stereo not drawn), for which the TGI with MOLT-4 leukemia, in the experiment on U251 CNS, in the experiment with SR leukemia, in the experiment with ACHN renal, in the experiment on HT29 colon and in the experiment on NCI-H23 lung was greater than 100 µM throughout. The TGI in the experiment with HOP-62 NSCLC, with M14 melanoma, in the experiment with LOX IMVI melanoma, in the experiment with OVCAR-3 ovarian, with COLO 205 colon and in the experiment on UACC-62 melanoma was greater than 100 µM throughout. Also, the TGI in the experiment on HOP-92 NSCLC, in the experiment on MDA-MB-435, with MDA-N, with MALME-3M melanoma, in the experiment on UACC-257 melanoma and in the experiment with SNB-75 CNS was greater than 100 µM in each case.

For `O=S(=O)(N=S(c1ccc(Cl)cc1)c1ccc(Cl)cc1)c1ccccc1`, the TGI with MOLT-4 leukemia, with U251 CNS, in the experiment with SR leukemia, in the experiment with ACHN renal, in the experiment with HT29 colon and in the experiment with NCI-H23 lung was greater than 100 µM throughout. The TGI in the experiment on HOP-62 NSCLC, in the experiment with M14 melanoma, with LOX IMVI melanoma, with K-562 leukemia, in the experiment on COLO 205 colon and with UACC-62 melanoma was greater than 100 µM each time. The TGI in the experiment with HOP-92 NSCLC, with MDA-MB-435, in the experiment with MDA-N, in the experiment with MALME-3M melanoma, with UACC-257 melanoma and in the experiment on SNB-75 CNS was greater than 100 µM each time.

Regarding `NCC#CCNCCCN1CC1`, the TGI in the experiment with U251 CNS, in the experiment with SR leukemia, with ACHN renal, in the experiment on HT29 colon, in the experiment with NCI-H23 lung and in the experiment on HOP-62 NSCLC was greater than 100 µM each time. Also, the TGI in the experiment on M14 melanoma, in the experiment with LOX IMVI melanoma, in the experiment on OVCAR-3 ovarian, in the experiment with K-562 leukemia, in the experiment with COLO 205 colon and with UACC-62 melanoma was greater than 100 µM each time. Further, the TGI in the experiment with HOP-92 NSCLC, in the experiment with MDA-MB-435, with MDA-N, in the experiment with MALME-3M melanoma and with UACC-257 melanoma was greater than 100 µM in each case.
